Where two headings read alike, the source gives them in different places.
Assays:
H1R = target: T1, H1R (Homo sapiens, UniProt P35367); test: Radioligand binding (competitive displacement and saturation), cell membranes; conditions: for Ki: pKi H1R
T1 construct: host or cells: CHO, transient
Procedure: (§1) Transfections were performed for 48 hours.

5-HT2AR = target: T2, 5-HT2AR (Homo sapiens, UniProt P28223); test: as above; conditions: displacement of [^3H]ketanserin, mean of n independent experiments, ± SD where n ≥ 5; for Ki: pKi 5-HT2AR
T2 construct: host or cells: HEK293, transient
Procedure: as §1

5-HT2BR = 5-HT2BR (Homo sapiens, UniProt P41595); test: biochemical
Procedure: (§2) All cells were grown adherently in 10 cm plates in a humidified incubator kept at 37° C. and 5% carbon dioxide. […] Transient transfections were used to express 5-HT2A, 5-HT2C, α1A- or α1B-adrenergic receptors, whereas 5-HT7(a)Rs were stably expressed in HEK293 cells. H1Rs were transiently expressed, and D2Rs were stably expressed in CHO cells.
(§3) Transient transfections were performed on cells in the log growth phase (70-90% confluence). […] Each solution was mixed by inversion before combining, mixed by inversion again, and incubated at 37° C. for 30 minutes. Cells were then washed with 1 mL 1×PBS, followed by the gentle addition of 5 mL of transfection cocktail and 5 mL of cell culture medium with 5% (final) dialyzed FBS. Transfections were performed for 48 hours.
(§4) The affinity of ligands was determined via radioligand binding techniques using human recombinant receptors expressed in mammalian clonal cells.
(§5) Saturation binding experiments were performed on membranes expressing 5-HT2A, 5-HT2B, 5-HT2C, or H1Rs in triplicate across 8 concentrations. Competition binding assays were performed in at least triplicate with approximate Kd concentrations of radioligand. Total and nonspecific binding were determined in octet. […] Serial dilutions of unlabeled compound were made in assay buffer at 2.5× the final concentration using 10 mM DMSO stocks (final [DMSO]≤1%). Assays were terminated using rapid filtration via Whatman GF/B Fired Filters (Brandel Inc., Gaithersburg, MD) soaked in 0.3% (w/v) PEI, using an automated Tomtec Harvester 96 (Hamden, CT).
(§6) Filters were washed with 50 mM Tri-HCl (pH=7.4, 4° C.) before being oven dried and placed into scintillation vials containing 1 mL SX18-4 ScintiVerse^TM BD Cocktail (Fisher Chemical, Fair Lawn, NJ).
(§7) GraphPad Prism (La Jolla, CA) version 9.1.1 was used to analyze all experimental data in this work. To analyze data from saturation binding studies, the radioligand counts per minute (cpm) were normalized to fmol/mg protein bound and then fit the data to a ‘specific binding with hill slope’ model. For competitive radioligand displacement studies, a baseline correction was performed by subtracting the mean nonspecific binding value from the radioligand binding values with and without competitor to obtain specific binding values. Specific binding values were then normalized such that total binding in the absence of competitor represented 100% radioligand binding, and the radioactivity associated with each concentration of competitor was a percentage of total binding. The normalized data was then fit to the ‘one-site Fit Ki’ nonlinear regression model.

5-HT2CR = target: T3, 5-HT2CR (Homo sapiens, UniProt P28335); test: biochemical
T3 sequence (P28335 33-458): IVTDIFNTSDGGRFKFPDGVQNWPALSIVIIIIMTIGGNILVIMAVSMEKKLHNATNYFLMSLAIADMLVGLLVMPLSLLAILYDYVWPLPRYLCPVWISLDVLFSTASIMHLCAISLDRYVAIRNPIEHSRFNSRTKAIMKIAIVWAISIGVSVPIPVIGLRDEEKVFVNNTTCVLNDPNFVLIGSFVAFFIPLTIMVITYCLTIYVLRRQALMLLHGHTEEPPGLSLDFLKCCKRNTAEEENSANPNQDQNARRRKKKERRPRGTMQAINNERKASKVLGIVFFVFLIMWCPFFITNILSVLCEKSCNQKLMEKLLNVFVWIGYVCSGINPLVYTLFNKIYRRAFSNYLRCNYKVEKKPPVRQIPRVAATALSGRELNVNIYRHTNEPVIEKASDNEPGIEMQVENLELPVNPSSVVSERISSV
Procedure: as §2, §3, §4, §5, §6, §7

[1] = displacement of [^3H]mepyramine, mean of n independent experiments, ± SD where n ≥ 5

T2 sequence (P28223 whole entry): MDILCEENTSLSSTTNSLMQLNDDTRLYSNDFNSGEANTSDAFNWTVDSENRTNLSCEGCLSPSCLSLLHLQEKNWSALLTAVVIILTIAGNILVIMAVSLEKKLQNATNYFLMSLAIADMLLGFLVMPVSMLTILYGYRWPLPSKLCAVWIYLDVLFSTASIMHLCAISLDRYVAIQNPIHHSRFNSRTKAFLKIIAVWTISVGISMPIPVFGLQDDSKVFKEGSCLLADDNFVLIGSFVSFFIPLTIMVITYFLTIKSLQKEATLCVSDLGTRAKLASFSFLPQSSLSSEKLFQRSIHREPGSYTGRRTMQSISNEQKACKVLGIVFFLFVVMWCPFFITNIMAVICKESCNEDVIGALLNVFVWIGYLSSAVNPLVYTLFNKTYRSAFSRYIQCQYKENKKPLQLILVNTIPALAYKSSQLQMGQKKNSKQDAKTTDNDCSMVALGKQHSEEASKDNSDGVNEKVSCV
Sequence of 5-HT2BR (P41595 whole entry): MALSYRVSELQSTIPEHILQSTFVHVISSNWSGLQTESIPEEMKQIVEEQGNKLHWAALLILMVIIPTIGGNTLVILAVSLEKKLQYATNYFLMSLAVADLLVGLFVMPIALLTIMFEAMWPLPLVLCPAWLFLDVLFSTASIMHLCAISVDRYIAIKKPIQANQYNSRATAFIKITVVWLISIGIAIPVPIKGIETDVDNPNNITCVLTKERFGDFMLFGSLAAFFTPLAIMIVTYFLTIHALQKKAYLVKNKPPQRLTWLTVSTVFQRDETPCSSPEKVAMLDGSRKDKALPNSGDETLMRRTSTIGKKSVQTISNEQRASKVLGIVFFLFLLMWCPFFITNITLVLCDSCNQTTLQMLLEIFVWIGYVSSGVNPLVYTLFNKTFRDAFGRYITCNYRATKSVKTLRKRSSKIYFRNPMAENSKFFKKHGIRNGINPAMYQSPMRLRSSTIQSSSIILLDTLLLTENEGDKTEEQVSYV
T1 sequence (P35367 whole entry): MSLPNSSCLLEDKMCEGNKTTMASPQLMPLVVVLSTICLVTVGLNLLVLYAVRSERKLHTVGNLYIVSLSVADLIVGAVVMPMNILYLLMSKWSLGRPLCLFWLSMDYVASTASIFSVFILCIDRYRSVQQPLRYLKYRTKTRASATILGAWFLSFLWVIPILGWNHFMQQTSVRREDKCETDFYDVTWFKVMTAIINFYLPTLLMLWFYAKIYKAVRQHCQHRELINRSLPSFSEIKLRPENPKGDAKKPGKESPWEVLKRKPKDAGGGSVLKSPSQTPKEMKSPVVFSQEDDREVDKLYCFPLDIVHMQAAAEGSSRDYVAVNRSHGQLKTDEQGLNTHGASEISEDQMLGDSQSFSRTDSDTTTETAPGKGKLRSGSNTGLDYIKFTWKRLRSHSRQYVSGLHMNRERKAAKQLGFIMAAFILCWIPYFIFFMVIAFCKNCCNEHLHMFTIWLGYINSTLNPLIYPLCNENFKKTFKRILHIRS

Structure (SMILES)	Ki (5-HT2BR) [nM]	Ki (H1R; [1]) [nM]	Ki (5-HT2AR) [nM]	Ki (5-HT2CR) [nM]	further results
CN(C)[C@@H]1Cc2ccccc2[C@@H](c2cccc(-c3cccc(F)c3)c2)C1 [(2S,4R)-2h, Trans-4-(3′-fluoro-[1,1′-biphenyl]-3-yl)-N,N-dimethyl-1,2,3,4-tetrahydronaphtha-len-2-amine]	–	–	–	–	pKi H1R (H1R; [1]): 8.96; pKi 5-HT2AR (5-HT2AR): 9.22
CN(C)C1Cc2ccccc2C(c2cccc(-c3ccccc3F)c2)C1 (single isomer, unassigned) [(2S,4R)-2g, Trans-4-(2′-fluoro-[1,1′-biphenyl]-3-yl)-N, N-dimethyl-1,2,3,4-tetrahydronaphtha-len-2-amine]	81.3	1.78	0.813	–	–
CN(C)[C@@H]1Cc2ccccc2[C@@H](c2cccc(-c3ccncc3)c2)C1 (single isomer, unassigned) [(2S,4R)-2e, Trans-4-(3-(pyridin-4-yl)phenyl)-N,N-dimethyl-1,2,3,4-tetrahydronaphthalen-2-amine]	–	1.38	7.41	42.7	–
CN(C)[C@@H]1Cc2ccccc2[C@@H](c2cccc(-c3ccc(Cl)cc3)c2)C1 [(2S,4R)-2j, Trans-4-(4′-chloro-[1,1′-biphenyl]-3-yl)-N,N-dimethyl-1,2,3,4-tetrahydronaphtha-len-2-amine]	–	1.45	0.288	4.9	–
CN(C)C1Cc2ccccc2C(c2cccc(-c3ccc(Cl)cc3)c2)C1 [(2R,4S)-2j, Trans-4-(4′-chloro-[1,1′-biphenyl]-3-yl)-N,N-dimethyl-1,2,3,4-tetrahydronaphtha-len-2-amine]	–	14.5	5.37	7.08	–
CN(C)C1Cc2ccccc2C(c2cccc(-c3cccc(F)c3)c2)C1 [(2R,4S)-2h, Trans-4-(3′-fluoro-[1,1′-biphenyl]-3-yl)-N,N-dimethyl-1,2,3,4-tetrahydronaphtha-len-2-amine]	–	49	–	–	pKi 5-HT2AR (5-HT2AR): 8.03
CN(C)[C@@H]1Cc2ccccc2[C@H](c2cccc(Cl)c2)C1 (single isomer, unassigned) [(2S,4S)-3b, Cis-4-(3-chlorophenyl)-N, N-dimethyl-1,2,3,4-tetrahydronaphthalen-2-amine]	389	–	–	–	–
CN(C)C1Cc2ccccc2C(c2cccc(-c3ccccc3F)c2)C1 (single isomer, unassigned) [(2R,4S)-2g, Trans-4-(2′-fluoro-[1,1′-biphenyl]-3-yl)-N, N-dimethyl-1,2,3,4-tetrahydronaphtha-len-2-amine]	43.7	–	30.9	–	pKi H1R (H1R): 6.93^(2) 7.02-6.84 8.75^(4) 9.1-8.62 ND 6.54^(2) 6.67-6.40
CN(C)[C@@H]1Cc2ccccc2[C@H](c2cccc(Cl)c2)C1 (single isomer, unassigned) [(2R,4R)-3b, Cis-4-(3-chlorophenyl)-N, N-dimethyl-1,2,3,4-tetrahydronaphthalen-2-amine]	115	–	–	–	–
CN(C)[C@@H]1Cc2ccccc2[C@H](c2cccc(-c3ccco3)c2)C1 (single isomer, unassigned) [(2R,4R)-3d, Cis-4-(3-(furan-2-yl)phenyl)-N,N-dimethyl-1,2,3,4-tetrahydronaphthalen-2-amine]	–	50.1	–	–	–
CN(C)[C@@H]1Cc2ccccc2[C@H](c2cccc(-c3ccc(Cl)cc3)c2)C1 (single isomer, unassigned) [(2S,4S)-3j, Cis-4-(4′-chloro-[1,1′-biphenyl]-3-yl)-N,N-dimethyl-1,2,3,4-tetrahydronaphthalen-2-amine]	–	–	63.1	97.7	–
CN(C)[C@@H]1Cc2ccccc2[C@@H](c2cccc(-c3ccco3)c2)C1 (single isomer, unassigned) [(2S,4R)-2d, Trans-4-(3-(furan-2-yl)phenyl)-N,N-dimethyl-1,2,3,4-tetrahydronaphthalen-2-amine]	–	3.39	–	–	–
CN(C)[C@@H]1Cc2ccccc2[C@H](c2cccc(-c3cccc(F)c3)c2)C1 (single isomer, unassigned) [(2S,4S)-3h, Cis-4-(3′-fluoro-[1,1′-biphenyl]-3-yl)-N,N-dimethyl-1,2,3,4-tetrahydronaphthalen-2-amine]	–	–	–	–	pKi H1R (H1R): 7.31 ^(2) 7.39-7.23 8.96^(3) 9.11-8.88 6.20^(2) 6.23-6.18 6.30 ± 0.10^(5) 6.42-6.14; pKi 5-HT2AR (5-HT2AR): 7.69

Source: patent publication US20240327353A1
